Reference: patent publication US20120264735A1 (priority 2009, published 2012)

Biological target: T1, c-Met kinase (recombinant c-Met) (Homo sapiens, UniProt P08581)
T1 construct: 0.27 nM recombinant c-Met
Assay: In vitro kinase assay I (homogeneous time-resolved fluorescence tyrosine kinase assay)
Format: biochemical
In short: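 Biotinylated peptide (0.5 μM) phosphorylated by 0.2 nM recombinant c-Met with 50 μM MgATP, 60 min at room temperature, pH 7.4, 5% DMSO. EDTA stop; HTRF read with Eu-anti-phosphotyrosine antibody and streptavidin-APC. IC50 from 4-parameter logistic fit.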

T1 sequence (P08581 25-1390): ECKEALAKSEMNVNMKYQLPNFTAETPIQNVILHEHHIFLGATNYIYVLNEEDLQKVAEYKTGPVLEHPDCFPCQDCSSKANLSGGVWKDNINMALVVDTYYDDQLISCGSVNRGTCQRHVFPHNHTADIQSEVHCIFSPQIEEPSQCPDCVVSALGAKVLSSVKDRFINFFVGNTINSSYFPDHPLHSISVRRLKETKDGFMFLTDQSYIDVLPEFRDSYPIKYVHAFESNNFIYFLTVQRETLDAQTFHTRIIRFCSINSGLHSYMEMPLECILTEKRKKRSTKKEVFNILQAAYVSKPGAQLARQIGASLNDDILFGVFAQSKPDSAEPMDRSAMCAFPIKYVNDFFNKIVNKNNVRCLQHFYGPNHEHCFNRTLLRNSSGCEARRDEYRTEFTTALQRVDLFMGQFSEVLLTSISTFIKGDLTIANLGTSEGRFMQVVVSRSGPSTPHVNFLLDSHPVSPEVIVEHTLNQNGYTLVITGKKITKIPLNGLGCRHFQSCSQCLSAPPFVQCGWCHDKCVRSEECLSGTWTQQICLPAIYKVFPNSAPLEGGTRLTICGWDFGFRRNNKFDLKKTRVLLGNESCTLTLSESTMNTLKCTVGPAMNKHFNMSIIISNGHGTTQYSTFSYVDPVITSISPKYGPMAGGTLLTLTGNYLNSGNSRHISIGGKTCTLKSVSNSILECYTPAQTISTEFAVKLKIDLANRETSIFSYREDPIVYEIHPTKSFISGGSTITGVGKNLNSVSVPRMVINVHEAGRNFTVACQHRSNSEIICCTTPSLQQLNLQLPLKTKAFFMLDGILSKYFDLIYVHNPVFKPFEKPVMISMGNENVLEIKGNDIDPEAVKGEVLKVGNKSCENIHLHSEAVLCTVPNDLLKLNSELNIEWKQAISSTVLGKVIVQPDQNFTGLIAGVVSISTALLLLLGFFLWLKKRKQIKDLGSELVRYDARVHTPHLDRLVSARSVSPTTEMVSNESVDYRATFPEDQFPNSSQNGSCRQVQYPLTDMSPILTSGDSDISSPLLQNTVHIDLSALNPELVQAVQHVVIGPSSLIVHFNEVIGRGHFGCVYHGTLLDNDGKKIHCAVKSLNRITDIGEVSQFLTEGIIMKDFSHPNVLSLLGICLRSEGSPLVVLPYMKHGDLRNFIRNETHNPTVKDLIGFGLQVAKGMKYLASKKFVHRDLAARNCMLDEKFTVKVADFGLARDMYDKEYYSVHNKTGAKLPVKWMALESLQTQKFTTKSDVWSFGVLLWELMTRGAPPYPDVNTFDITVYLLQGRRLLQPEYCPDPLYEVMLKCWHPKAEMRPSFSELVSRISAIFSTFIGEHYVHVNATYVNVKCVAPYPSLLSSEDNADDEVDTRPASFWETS

| IC50 [nM] | Structure (SMILES) |
| --- | --- |
| < 100 | CC(c1cccc(-c2ncc(OC3CCOCC3)cn2)c1)c1nn(-c2cnn(C)c2)ccc1=O (single isomer, unassigned) [Example 212, 1-(1-methyl-1H-pyrazol-4-yl)-3-[(1R or S)-1-{3-[5-(tetrahydro-2H-pyran-4-yloxy)pyrimidin-2-yl]phenyl}ethyl]pyridazin-4(1H)-one] |
| 100 to 1000 | CCn1cnc(-c2cccc(C(C)c3nn(-c4cnn(C)c4)ccc3=O)c2)n1 (single isomer, unassigned) [Example 680, 3-{(1S or R)-1-[3-(1-ethyl-1H-1,2,4-triazol-3-yl)phenyl]ethyl}-1-(1-methyl-1H-pyrazol-4-yl)pyridazin-4(1H)-one] |
| < 100 | Cn1cc(-n2ccc(=O)c(Cc3cccc(-c4ncc(OCC(=O)OC(C)(C)C)cn4)c3)n2)cn1 [Example 287, tert-butyl [2-(3-{[1-(1-methyl-1H-pyrazol-4-yl)-4-oxo-1,4-dihydropyridazin-3-yl]methyl}phenyl)pyrimidin-5-yl]oxyacetate] |
| < 100 | COc1cnc(-c2cccc(Cc3nn(-c4cncc(F)c4)ccc3=O)c2)nc1 [Example 36, 1-(5-fluoropyridin-3-yl)-3-[3-(5-methoxypyrimidin-2-yl)benzyl]pyridazin-4(1H)-one] |
